Experimental data published in patent EP4656642A1, “ESTROGEN RECEPTOR PROTEOLYSIS TARGETING CHIMERA COMPOUND AND USE THEREOF” (GAN & LEE PHARM CO., LTD, priority 2023, dated 2024).

Experiments:
Assay type in all cases: cell-based
MCF-7 cells = assay: Inhibition of cell proliferation of MCF-7 cells (CCK-8, 9 days); conditions: treated for 9 days, CCK-8 kit (Table 6)
Excerpt: Test Example 4 Inhibitory effect of the PROTAC compounds disclosed in the present disclosure on cell proliferation of MCF-7 cells
The complete medium required for MCF-7 cells (source ATCC) was DMEM (gibco, Product number :11995-065) basal medium containing 10% fetal bovine serum. MCF-7 cells were inoculated in 96-well plates at a density of 800 cells/well, and different concentrations of the PROTAC compounds 1-55 provided in the embodiments of the present disclosure and a positive control sample ARV-471 (source: Innochem) were prepared to treat cells, and cells were treated at 37°C in a cell culture incubator with 5% CO2 for 9 days. Cell viability was detected using a CCK -8 kit (Beyotime , Product number: C0040) according to the manufacturer's instruction. […] Table 5 IC50 values for inhibition of the proliferation of MCF-7 cells by the PROTAC compounds of the present disclosure and positive control sample

ERα [1] = molecular target: T1, ERα (Homo sapiens, UniProt P03372); assay: Degradation of ERα in MCF-7 cells (immunoblotting, 4 h)
T1 sequence (P03372 1-595): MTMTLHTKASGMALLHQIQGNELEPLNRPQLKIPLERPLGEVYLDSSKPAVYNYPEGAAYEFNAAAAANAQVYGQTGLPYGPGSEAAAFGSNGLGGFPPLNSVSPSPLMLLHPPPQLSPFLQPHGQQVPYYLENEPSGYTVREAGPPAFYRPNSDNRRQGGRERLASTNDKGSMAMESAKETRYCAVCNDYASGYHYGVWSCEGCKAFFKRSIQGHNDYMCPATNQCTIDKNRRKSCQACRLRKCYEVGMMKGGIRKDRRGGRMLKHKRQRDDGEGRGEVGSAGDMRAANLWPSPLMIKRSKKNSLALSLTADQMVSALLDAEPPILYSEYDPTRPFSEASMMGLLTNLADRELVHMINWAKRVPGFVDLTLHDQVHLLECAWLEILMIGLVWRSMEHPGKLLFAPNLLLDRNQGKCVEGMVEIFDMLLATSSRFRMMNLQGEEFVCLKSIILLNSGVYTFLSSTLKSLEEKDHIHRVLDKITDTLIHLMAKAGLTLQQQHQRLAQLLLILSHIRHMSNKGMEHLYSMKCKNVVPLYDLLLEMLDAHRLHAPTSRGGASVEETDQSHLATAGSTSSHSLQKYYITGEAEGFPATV
Method: MCF-7 cells were inoculated into 6-well plates at a density of 3×10^5 cells/well and cultured at 37°C, 5% CO2 for 24h. After the cells were attached to the wall, 1µL of the compound solution in dimethyl sulfoxide (final concentration 0.15-1000nM) was added and continued to be cultured in incubator at 37°C with 5% CO2 for 4 h. After 4 h, the culture medium was discarded, and each well was washed once with pre-cooled 1×DPBS, and the cells were lysed with a mixture of 50 µL of RIPA lysis buffer (P0013B, Beyotime) and 1× protease inhibitor (P1005, Beyotime), and then centrifuged at 14,000 g for 30 min at 4°C after resting on ice for 20 min, and the supernatant was carefully collected to detect the protein level of ERα by protein immunoblotting (Immunoblotting).
Protein immunoblotting: The total protein concentration in the collected cell lysate supernatant was determined by BCA Protein Concentration Assay Kit (Enhanced) (P0009, Beyotime). According to the total protein concentration detected by BCA, the protein was adjusted to 1 µg/µL with RIPA lysis buffer and 5× SDS-PAGE protein loading buffer (MB01015, Genscript), and the protein was denatured by water bath at 95°C for 5 min, and then centrifuged after denaturation to enrich the condensate on the wall of the centrifuge tubes as a loading sample. […] At the end of electrophoresis, the proteins in the SDS-PAGE gels were transferred to a PVDF membrane at a constant voltage of 100 V for 60 min. After that, the PVDF membrane corresponding to ERα protein and internal reference protein was cut out and incubated in 1×QµickBlock blocking solution (P0252, Beyotime) for 30 min at room temperature on a shaker. […] Protein profiles were analyzed by Image Studio Lite analysis software for grayscale values. Grayscale correction values were calculated for each sample using the Formula: corrected grayscale value = grayscale value of the target protein /corresponding grayscale value of the internal reference. The degradation rate for the compounds was then calculated by comparing the corrected grayscale values of the compound group to the control group. Table 7 Degradation rate (%) of ERα by the PROTAC compounds of the present disclosure and positive control sample in MCF-7 cells

ERα [2] = molecular target: T1, ERα; assay: Degradation of ERα in T-47D cells (immunoblotting, 4 h); parameters: host or cells: T-47D
Method: T-47D cells were inoculated into 6-well plates at a density of 3×10^5 cells/well and cultured at 37°C, 5% CO2 for 24 h. After the cells were attached to the wall, 1µL of the compound solution in dimethyl sulfoxide (final concentration 0.15-1000 nM) was added and continued to be cultured in the incubator with 5% CO2 at 37°C for 4 h. After 4 h, the culture medium was discarded, and each well was washed once with pre-cooled 1×DPBS, and the cells were lysed with a mixture of 50 µL of RIPA lysis buffer (P0013B, Beyotime) and 1× protease inhibitor (P1005, Beyotime), and then centrifuged at 14,000 g for 30 min at 4°C after resting on ice for 20 min, and the supernatant was carefully collected to detect the protein level of ERα by protein immunoblotting (Immunoblotting).

Row | Structure (SMILES) | IC50 (MCF-7 cells) [nM] | Degradation rate (%) of ERα in MCF-7 cells (ERα [1]; 1nM compound) [%] | Degradation rate (%) of ERα in MCF-7 cells (ERα [1]; 10nM compound) [%] | Degradation rate (%) of ERα in T-47D cells (ERα [2]; 1nM compound) [%] | Degradation rate (%) of ERα in T-47D cells (ERα [2]; 10nM compound) [%]
1 | O=C1CCC(N2Cc3cc4c(cc3C2=O)OC2(CC4)CN(C3CCC(N4CCN(c5ccc([C@@H]6c7ccc(O)cc7CC[C@@H]6c6ccccc6)cc5)CC4)CC3)C2)C(=O)N1 (stereo partly shown) [B16] | 740 | -36 | 16 | 24 | 60
2 | O=C1CCC(N2Cc3c(ccc4c3OCC43CCN(C(=O)CN4CCC5(CC4)CN(c4ccc([C@@H]6c7ccc(O)cc7CC[C@@H]6c6ccccc6)cc4)C5)CC3)C2=O)C(=O)N1 (stereo partly shown) [B17] | 16.6 | 37 | 61 | 52 | 76
3 | O=C1CCC(N2Cc3c(ccc4c3OCC43CCN(C4CCN(C(=O)C5CCC6(CC5)CCN(c5ccc([C@@H]7c8ccc(O)cc8CC[C@@H]7c7ccccc7)cc5)CC6)CC4)CC3)C2=O)C(=O)N1 (stereo partly shown) [B18] | 15.6 | 36 | 64 | 54 | 79
4 | O=C1CCC(N2Cc3c(ccc4c3OCC43CCN(CCNC(=O)C4CCC5(CC4)CCN(c4ccc([C@@H]6c7ccc(O)cc7CC[C@@H]6c6ccccc6)cc4)CC5)CC3)C2=O)C(=O)N1 (stereo partly shown) [B19] | 4170 | 26 | 72 | 55 | 73
5 | O=C1CCC(N2Cc3c(ccc4c3OCC43CCN(C(=O)CN4CC5(C4)CN(c4ccc([C@@H]6c7ccc(O)cc7CC[C@@H]6c6ccccc6)cc4)C5)CC3)C2=O)C(=O)N1 (stereo partly shown) [B20] | 1630 | 42 | 64 | 47 | 73
6 | O=C1CCC(N2Cc3c(ccc4c3OCC43CCN(CC(=O)N4CC5(C4)CN(c4ccc([C@@H]6c7ccc(O)cc7CC[C@@H]6c6ccccc6)cc4)C5)CC3)C2=O)C(=O)N1 (stereo partly shown) [B21] | 312 | 38 | 55 | 66 | 83
7 | O=C1CCC(N2Cc3c(ccc4c3OCC43CCN(CC(=O)N4CCC5(CC4)CN(c4ccc([C@@H]6c7ccc(O)cc7CC[C@@H]6c6ccccc6)cc4)C5)CC3)C2=O)C(=O)N1 (stereo partly shown) [B22] | 11.8 | 38 | 70 | 47 | 83
8 | O=C1CCC(N2Cc3c(ccc4c3OCC43CCN(CC(=O)N4CCC5(CCC(C#Cc6ccc([C@@H]7c8ccc(O)cc8CC[C@@H]7c7ccccc7)cc6)CC5)CC4)CC3)C2=O)C(=O)N1 (stereo partly shown) [B29] | 224 | 7 | 16 | -11 | 14
9 | O=C1CCC(N2Cc3c(ccc4c3OCC43CCN(CC(=O)N4CC5(CCC(C#Cc6ccc([C@@H]7c8ccc(O)cc8CC[C@@H]7c7ccccc7)cc6)CC5)C4)CC3)C2=O)C(=O)N1 (stereo partly shown) [B30] | 9.92 | 19 | 40 | 15 | 46
10 | CN(CC1CCN(c2ccc([C@@H]3c4ccc(O)cc4CC[C@@H]3c3ccccc3)cc2)CC1)[C@H]1CC[C@@H](C(=O)N2CCC3(CC2)COc2c3ccc3c2CN(C2CCC(=O)NC2=O)C3=O)CC1 (stereo partly shown) [B34] | 179 | 64 | 71 | 71 | 83
11 | CN(C1CCN(c2ccc([C@@H]3c4ccc(O)cc4CC[C@@H]3c3ccccc3)cc2)CC1)[C@H]1CC[C@@H](C(=O)N2CCC3(CC2)COc2c3ccc3c2CN(C2CCC(=O)NC2=O)C3=O)CC1 (stereo partly shown) [B35] | 49.7 | 60 | 72 | 74 | 88

Continued, values first:

Row | IC50 (MCF-7 cells) [nM] | Degradation rate (%) of ERα in MCF-7 cells (ERα [1]; 1nM compound) [%] | Degradation rate (%) of ERα in MCF-7 cells (ERα [1]; 10nM compound) [%] | Degradation rate (%) of ERα in T-47D cells (ERα [2]; 1nM compound) [%] | Degradation rate (%) of ERα in T-47D cells (ERα [2]; 10nM compound) [%] | Structure (SMILES)
12 | 9.05 | 19 | 68 | 34 | 83 | O=C1CCC(N2Cc3c(ccc4c3OCC43CCN(C4CC5CCCC(C4)N5C(=O)C4CCN(c5ccc([C@@H]6c7ccc(O)cc7CC[C@@H]6c6ccccc6)cc5)CC4)CC3)C2=O)C(=O)N1 (stereo partly shown) [D1]
13 | 3620 | 31 | 29 | 61 | 68 | O=C1CCC(N2Cc3c(ccc4c3OCC43CCN(C4CC5CC4CN5C(=O)C4CCN(c5ccc([C@@H]6c7ccc(O)cc7CC[C@@H]6c6ccccc6)cc5)CC4)CC3)C2=O)C(=O)N1 (stereo partly shown) [D2]
14 | 6.58 | 38 | 60 | 34 | 73 | O=C1CCC(N2Cc3c(ccc4c3OCC43CCN(C4CC5CC4CN5C4CC5(CCN(c6ccc([C@@H]7c8ccc(O)cc8CC[C@@H]7c7ccccc7)cc6)CC5)C4)CC3)C2=O)C(=O)N1 (stereo partly shown) [D3]
15 | 3580 | 41 | 69 | 54 | 79 | O=C1CCC(N2Cc3c(ccc4c3OCC43CCN(C4CN(C(=O)C5CCN(c6ccc([C@@H]7c8ccc(O)cc8CC[C@@H]7c7ccccc7)cc6)CC5)C4)CC3)C2=O)C(=O)N1 (stereo partly shown) [D4]
16 | 180 | 61 | 58 | 68 | 80 | O=C1CCC(N2Cc3c(ccc4c3OCC43CCN(CC4CN(C(=O)C5CCN(c6ccc([C@@H]7c8ccc(O)cc8CC[C@@H]7c7ccccc7)cc6)CC5)C4)CC3)C2=O)C(=O)N1 (stereo partly shown) [D5]
17 | 33000 | 38 | 59 | 59 | 84 | COC1(CN2CCC3(CC2)COc2c3ccc3c2CN(C2CCC(=O)NC2=O)C3=O)CCN(C(=O)C2CCN(c3ccc([C@@H]4c5ccc(O)cc5CC[C@@H]4c4ccccc4)cc3)CC2)CC1 (stereo partly shown) [D6]
